Measurements published in ChEMBL document CHEMBL5390286, “Discovery of Ingenane Diterpenoids from Euphorbia hylonoma as Antiadipogenic Agents” (J Nat Prod, 2023).
pEC50: −log10 of the molar value. Activity calls are given as the source filed them. The calls are words filed in the database; no cut-off is given here.

Legend:
3T3-L1 [1] = experiment: Anti-adipogenic efficacy in mouse 3T3-L1 cells assessed as inhibition of TG level by Oil Red O staining based light microscopic analysis; type: functional, cell-based
3T3-L1 [2] = experiment: Anti-adipogenic efficacy in mouse 3T3-L1 cells assessed as reduction in C/EBPbeta mRNA level by RT-qPCR analysis; type: functional, cell-based; conditions: dose 0.1-10 µM
3T3-L1 [3] = experiment: Cytotoxicity against mouse 3T3-L1 cells assessed as reduction in cell viability at 20 uM by CCK-8 assay; type: toxicity, cell-based; conditions: 3t3-l1, 20 µM
3T3-L1 [4] = experiment: Anti-adipogenic efficacy in mouse 3T3-L1 cells assessed as increase in p-ACC level at 0.1 to 10 uM by Western blot analysis; type: functional, cell-based; conditions: dose 0.1-10 µM
3T3-L1 [5] = experiment: Anti-adipogenic efficacy in mouse 3T3-L1 cells assessed as inhibition of TG level at 1 uM by Oil Red O staining based light microscopy analysis; type: functional, cell-based
3T3-L1 [6] = experiment: Anti-adipogenic efficacy in mouse 3T3-L1 cells assessed as reduction in PPARgamma mRNA level by RT-qPCR analysis; type: functional, cell-based; conditions: dose 0.1-10 µM
3T3-L1 [7] = experiment: Anti-adipogenic efficacy in mouse 3T3-L1 cells assessed as reduction in C/EBPbeta protein level by Western blot analysis; type: functional, cell-based; conditions: dose 0.1-10 µM
3T3-L1 [8] = experiment: Anti-adipogenic efficacy in mouse 3T3-L1 cells assessed as reduction in FAS protein level by Western blot analysis; type: functional, cell-based; conditions: dose 0.1-10 µM
3T3-L1 [9] = experiment: Anti-adipogenic efficacy in mouse 3T3-L1 cells assessed as reduction in FAS mRNA level by RT-qPCR analysis; type: functional, cell-based; conditions: dose 0.1-10 µM
3T3-L1 [10] = experiment: Anti-adipogenic efficacy in mouse 3T3-L1 cells assessed as reduction in SCD-1 protein level by Western blot analysis; type: functional, cell-based; conditions: dose 0.1-10 µM
3T3-L1 [11] = experiment: Anti-adipogenic efficacy in mouse 3T3-L1 cells assessed as reduction in SCD-1 mRNA level by RT-qPCR analysis; type: functional, cell-based; conditions: dose 0.1-10 µM
3T3-L1 [12] = experiment: Anti-adipogenic efficacy in mouse 3T3-L1 cells assessed as increase in p-AMPK level at 0.1 to 10 uM by Western blot analysis; type: functional, cell-based; conditions: dose 0.1-10 µM
3T3-L1 [13] = experiment: Anti-adipogenic efficacy in mouse 3T3-L1 cells assessed as reduction in PPARgamma protein level by Western blot analysis; type: functional, cell-based; conditions: dose 0.1-10 µM

Compound | pEC50 (3T3-L1 [1]) | Activity (3T3-L1 [2]) | Activity (3T3-L1 [3]) | Activity (3T3-L1 [4]) | Activity (3T3-L1 [5]) | Activity (3T3-L1 [6]) | Activity (3T3-L1 [7]) | Activity (3T3-L1 [8]) | Activity (3T3-L1 [9]) | Activity (3T3-L1 [10]) | Activity (3T3-L1 [11]) | Activity (3T3-L1 [12]) | Activity (3T3-L1 [13])
C=C1C[C@]2(O)C(=O)C(C)(C)C[C@H]2C2=CC(=O)[C@]3(C[C@H](C)[C@H](OC(=O)c4ccccc4)[C@@H]3[C@H]1OC(=O)c1ccccc1)O2 | 6.70 |  |  |  |  |  |  |  |  |  |  |  | 
CC1=C[C@@H]2C(=O)[C@]3(C=C(C)[C@H](OC(=O)C(C)C(C)C)[C@@]3(O)[C@@H]1O)[C@H](C)C[C@@H]1[C@H]2C1(C)C (stereo not given in full) | 6.22 | Dose-Dependent Effect | Non-Toxic | Active | Active | Dose-Dependent Effect | Dose-Dependent Effect | Dose-Dependent Effect | Dose-Dependent Effect | Dose-Dependent Effect | Dose-Dependent Effect | Active | Dose-Dependent Effect
C=C1C[C@]23O[C@@](O)([C@@]4(O)C[C@H](C)[C@H](OC(=O)c5ccccc5)[C@@H]4[C@H]1OC(=O)c1ccccc1)[C@]1(C)O[C@](C)(CC2=O)C[C@H]31 | 6.44 |  |  |  |  |  |  |  |  |  |  |  | 
